Source: US20080194524A1, “Compounds For the Inhibition of Undesired Cell Proliferation and Use Thereof” (JERINI AG, priority 2003, published 2008)

Target: hPin1 (Protein interacting with NIMA (-kinase)) (Homo sapiens, UniProt Q13526)
Assay: protease-coupled PPIase assay, hPin1
Assay type: biochemical
Settings: hPin1 6 nM; substrate Ac-Ala-Ala-Ser(PO3H2)-Pro-Arg-pNA, trypsin; 35 mM HEPES pH 7.8, 6° C.; read-out: Specificity of the inhibition with rotamases, Target T-1 (IC50 class)

Sequence of hPin1 (Protein interacting with NIMA (-kinase)) (Q13526 whole entry): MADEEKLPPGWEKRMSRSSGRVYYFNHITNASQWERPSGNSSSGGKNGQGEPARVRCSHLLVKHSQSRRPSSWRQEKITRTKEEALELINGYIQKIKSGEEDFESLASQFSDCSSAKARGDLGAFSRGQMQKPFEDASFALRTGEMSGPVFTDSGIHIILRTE

| SMILES | IC50 [µM] |
| --- | --- |
| NC(=O)[C@H](Cc1ccc2ccccc2c1)NC(=O)[C@@H]1CCCCN1C(=O)[C@H](CSCP(=O)(O)O)NC(=O)OCCc1ccccc1 [Compound 47, {3-{2-(1-Carbamoyl-2-naphthalen-2-yl-ethylcarbamoyl)-piperidin-1-yl]-3-oxo-2-phenethyloxycarbonyl-aminopropylsulfanylmethyl}-phosphonic acid] | 1 to 10 |
| NC(=O)[C@H](Cc1ccc2ccccc2c1)NC(=O)[C@@H]1CCCCN1C(=O)[C@H](CSCP(=O)(O)O)NS(=O)(=O)c1ccccc1 [Compound 48, {2-Benzenesulfonylamino-3-[2-(1-carbamoyl-2-naphthalen-2-yl-ethylcarbamoyl)-piperidin-1-yl]-3-oxo-propylsulfanylmethyl}-phosphonic acid] | < 1 |
| NC(=O)[C@H](Cc1ccc2ccccc2c1)NC(=O)[C@@H]1CCCCN1C(=O)[C@H](CSCP(=O)(O)O)NS(=O)(=O)CCc1ccccc1 [Compound 49, [3-[2-(1-Carbamoyl-2-naphthalen-2-yl-ethylcarbamoyl)-piperidin-1-yl]-3-oxo-2-(2-phenyl-ethanesulfonylamino)-propylsulfanylmethyl]-phosphonicacid] | < 1 |
| NC(=O)[C@H](Cc1ccc2ccccc2c1)NC(=O)[C@@H]1CCCCN1C(=O)[C@H](CSCP(=O)(O)O)NS(=O)(=O)CCCc1ccccc1 [Compound 50, [3-[2-(1-Carbamoyl-2-naphthalen-2-yl-ethylcarbamoyl)-piperidin-1-yl]-3-oxo-2-(3-phenyl-propane-1-sulfonylamino)-propylsulfanylmethyl]-phosphonicacid] | < 1 |
| CS(=O)(=O)N[C@@H](CSCP(=O)(O)O)C(=O)N1CCCC[C@H]1C(=O)N[C@@H](Cc1ccc2ccccc2c1)C(N)=O [Compound 51, {3-[2-(1-Carbamoyl-2-naphthalen-2-yl-ethylcarbamoyl)-piperidin-1-yl]-2-methanesulfonylamino-3-oxo-propylsulfanylmethyl}-phosphonic acid] | 1 to 10 |
| Cc1cc(C)c(S(=O)(=O)N[C@@H](CSCP(=O)(O)O)C(=O)N2CCCC[C@H]2C(=O)N[C@@H](Cc2ccc3ccccc3c2)C(N)=O)c(C)c1 [Compound 52, [3-[2-(1-Carbamoyl-2-naphthalen-2-yl-ethylcarbamoyl)-piperidin-1-yl]-3-oxo-2-(2.4.6-trimethyl-benzenesulfonylamino)-propylsulfanylmethyl]-phosphonicacid] | 1 to 10 |
| NC(=O)[C@H](Cc1ccc2ccccc2c1)NC(=O)[C@@H]1CCCCN1C(=O)[C@H](CSCP(=O)(O)O)NS(=O)(=O)c1cccs1 [Compound 53, [3-[2-(1-Carbamoyl-2-naphthalen-2-yl-ethylcarbamoyl)-piperidin-1-yl]-3-oxo-2-(thiophene-2-sulfonylamino)propylsulfanyl-methyl]-phosphonic acid] | < 1 |
| NC(=O)[C@H](Cc1ccc2ccccc2c1)NC(=O)[C@@H]1CCCCN1C(=O)[C@H](CSCP(=O)(O)O)NC(=O)CCN1CCCCC1 [Compound 54, [3-[2-(1-Carbamoyl-2-naphthalen-2-yl-ethylcarbamoyl)-piperidin-1-yl]-3-oxo-2-(3-piperidin-1-yl-propionylamino)-propylsulfanylmethyl]-phosphonicacid] | 1 to 10 |
| NC(=O)[C@H](Cc1ccc2ccccc2c1)NC(=O)[C@@H]1CCCCN1CCSCP(=O)(O)O [Compound 55, {2-[2-(1-Carbamoyl-2-naphthalen-2-yl-ethylcarbamoyl)-piperidin-1-yl]-ethylsulfanylmethyl}-phosphonic acid] | < 1 |
| NC(=O)[C@H](Cc1ccc2ccccc2c1)NC(=O)[C@@H]1CCCCN1C(=O)[C@H](CSCP(=O)(O)O)NC(=O)Cc1ccc2c(c1)OCO2 [Compound 56, {2-(2-Benzo[1.3]dioxol-5-yl-acetylamino)-3-[2-(1-carbamoyl-2-naphthalen-2-yl-ethylcarbamoyl)-piperidin-1-yl]-3-oxo-propylsulfanylmethyl}-phosphonic acid] | < 1 |
| COc1cc(CC(=O)N[C@@H](CSCP(=O)(O)O)C(=O)N2CCCC[C@H]2C(=O)N[C@@H](Cc2ccc3ccccc3c2)C(N)=O)cc(OC)c1 [Compound 57, {3-[2-(1-Carbamoyl-2-naphthalen-2-yl-ethylcarbamoyl)-piperidin-1-yl]-2-[2-(3.5-dimethoxy-phenyl)-acetylamino]-3-oxo-propylsulfanylmethyl}-phosphonicacid] | < 1 |
| COc1ccccc1CC(=O)N[C@@H](CSCP(=O)(O)O)C(=O)N1CCCC[C@H]1C(=O)N[C@@H](Cc1ccc2ccccc2c1)C(N)=O [Compound 58, {3-[2-(1-Carbamoyl-2-naphthalen-2-yl-ethylcarbamoyl)-piperidin-1-yl]-2-[2-(2-methoxy-phenyl)-acetylamino]-3-oxo-propylsulfanylmethyl}-phosphonicacid] | < 1 |
| O=C(NCCc1ccc2ccccc2c1)[C@@H]1CCCCN1C(=O)CSCP(=O)(O)O [Compound 59, {2-[2-(2-Naphthalen-2-yl-ethylcarbamoyl)-piperidin-1-yl]-2-oxo-ethylsulfanylmethyl}-phosphonic acid] | 1 to 10 |
| O=C(Nc1ccccc1)[C@@H]1CCCCN1C(=O)CSCP(=O)(O)O [Compound 60, [2-Oxo-2-(2-phenylcarbamoyl-piperidin-1-yl)-ethylsulfanylmethyl]-phosphonicacid] | 1 to 10 |
| COc1cccc(CC(=O)N[C@@H](CSCP(=O)(O)O)C(=O)N2CCCC[C@H]2C(=O)N[C@@H](Cc2ccc3ccccc3c2)C(N)=O)c1 [Compound 61, {3-[2-(1-Carbamoyl-2-naphthalen-2-yl-ethylcarbamoyl)-piperidin-1-yl]-2-[2-(3-methoxy-phenyl)-acetylamino]-3-oxo-propylsulfanylmethyl}-phosphonicacid] | < 1 |
| NC(=O)[C@H](Cc1ccc2ccccc2c1)NC(=O)[C@@H]1CCCCN1C(=O)[C@H](CSCP(=O)(O)O)NC(=O)Cc1ccc(N2CCNCC2)cc1 [Compound 62, {3-[2-(1-Carbamoyl-2-naphthalen-2-yl-ethylcarbamoyl)-piperidin-1-yl]-3-oxo-2-[2-(4-piperazin-1-yl-phenyl)-acetylamino]-propylsulfanylmethyl}-phosphonicacid] | < 1 |
| CC(C)(C)NC(=O)[C@H](Cc1ccc2ccccc2c1)NC(=O)[C@@H]1CCCCN1C(=O)CSCP(=O)(O)O [Compound 63, {2-[2-(1-tert-Butylcarbamoyl-2-naphthalen-2-yl-ethylcarbamoyl)-piperidin-1-yl]-2-oxo-ethylsulfanylmethyl}-phosphonicacid] | < 1 |
| CNC(=O)[C@H](Cc1ccc2ccccc2c1)NC(=O)[C@@H]1CCCCN1C(=O)CSCP(=O)(O)O [Compound 64, {2-[2-(1-Methylcarbamoyl-2-naphthalen-2-yl-ethylcarbamoyl)-piperidin-1-yl]-2-oxo-ethylsulfanylmethyl}-phosphonicacid] | < 1 |

The remaining lines, values ahead:

| IC50 [µM] | SMILES |
| --- | --- |
| 1 to 10 | O=C(NCc1ccccc1)[C@@H]1CCCCN1C(=O)CSCP(=O)(O)O [Compound 66, [2-(2-Benzylcarbamoyl-piperidin-1-yl)-2-oxo-ethylsulfanylmethyl]-phosphonic acid] |
| 1 to 10 | O=C(NCCc1ccccc1)[C@@H]1CCCCN1C(=O)CSCP(=O)(O)O [Compound 67, [2-Oxo-2-(2-phenethylcarbamoyl-piperidin-1-yl)-ethylsulfanylmethyl]-phosphonicacid] |
| 1 to 10 | O=C(NCCCc1ccccc1)[C@@H]1CCCCN1C(=O)CSCP(=O)(O)O [Compound 68, {2-Oxo-2-[2-(3-phenyl-propylcarbamoyl)-piperidin-1-yl]-ethylsulfanylmethyl}-phosphonicacid] |
| < 1 | CC(C)(C)NC(=O)[C@H](Cc1ccc2ccccc2c1)NC(=O)[C@@H]1CCCCN1CCSCP(=O)(O)O [Compound 71, {2-[2-(1-tert-Butylcarbamoyl-2-naphthalen-2-yl-ethylcarbamoyl)-piperidin-1-yl]-ethylsulfanylmethyl}-phosphonicacid] |
| < 1 | O=C(NC(Cc1ccc2ccccc2c1)c1ccccc1)[C@@H]1CCCCN1C(=O)CSCP(=O)(O)O (stereo partly drawn) [Compound 73, {2-[2-(2-Naphthalen-2-yl-1-phenyl-ethylcarbamoyl)-piperidin-1-yl]-2-oxo-ethylsulfanylmethyl}-phosphonic acid] |
| 1 to 10 | Cc1csc(C(Cc2ccc3ccccc3c2)NC(=O)[C@@H]2CCCCN2C(=O)CSCP(=O)(O)O)n1 (stereo partly drawn) [Compound 74, (2-{2-[1-(4-Methyl-thiazol-2-yl)-2-naphthalen-2-yl-ethylcarbamoyl]-piperidin-1-yl}-2-oxo-ethylsulfanylmethyl)-phosphonic acid] |
| < 1 | O=C(NC(Cc1ccc2ccccc2c1)c1nnco1)[C@@H]1CCCCN1C(=O)CSCP(=O)(O)O (stereo partly drawn) [Compound 75, {2-[2-(2-Naphthalen-2-yl-1-[1,3,4]oxadiazol-2-yl-ethylcarbamoyl)-piperidin-1-yl]-2-oxo-ethylsulfanylmethyl}-phosphonic acid] |
| < 1 | O=C(NC(Cc1ccc2ccccc2c1)c1nnc[nH]1)[C@@H]1CCCCN1C(=O)CSCP(=O)(O)O (stereo partly drawn) [Compound 76, (2-{2-[2-Naphthalen-2-yl-1-(4H-[1,2,4]triazol-3-yl)-ethylcarbamoyl]-piperidin-1-yl}-2-oxo-ethylsulfanylmethyl)-phosphonic acid] |
| < 1 | O=C(NC(Cc1ccc2ccccc2c1)c1ccccn1)[C@@H]1CCCCN1C(=O)CSCP(=O)(O)O (stereo partly drawn) [Compound 77, {2-[2-(2-Naphthalen-2-yl-1-pyridin-2-yl-ethylcarbamoyl)-piperidin-1-yl]-2-oxo-ethylsulfanylmethyl}-phosphonicacid] |
